According to ChEMBL document CHEMBL4011594, “Discovery and optimization of 2-pyridinone aminal integrase strand transfer inhibitors for the treatment of HIV” (Bioorg Med Chem Lett, 2017):
≈ marks a conversion by molar mass, not a printed value.

Assays:
[1] = Plasma protein binding in Beagle dog; assay type: ADME, cell-free, Canis lupus familiaris; settings: read-out: PPB (converted)
[2] = Aqueous solubility of the compound at pH 2; assay type: physicochemical
[3] = Aqueous solubility of the compound at pH 7; assay type: physicochemical
[4] = Clearance in Beagle dog at 0.5 mg/kg, iv or 1 mg/kg, po; assay type: ADME, organism-based, Canis lupus familiaris; settings: in vivo
[5] = Volume of distribution in Beagle dog at 0.5 mg/kg, iv or 1 mg/kg, po; assay type: ADME, organism-based, Canis lupus familiaris; settings: in vivo
[6] = Half life in Beagle dog at 0.5 mg/kg, iv or 1 mg/kg, po; assay type: ADME, organism-based, Canis lupus familiaris; settings: in vivo
[7] = Oral bioavailability in Beagle dog at 1 mg/kg; assay type: ADME, organism-based, Canis lupus familiaris; settings: in vivo
[8] = Apparent permeability of the compound; assay type: physicochemical; settings: not told
[9] = test system: Human immunodeficiency virus 1; assay: Inhibition of wild-type HIV-1 integrase strand transfer activity assessed as reduction in viral replication in presence of 10% normal human serum
[10] = test system: Human immunodeficiency virus type 1 integrase (Human immunodeficiency virus 1), Q7ZJM1 [E92Q]; assay: Inhibition of HIV-1 integrase E92Q mutant strand transfer activity assessed as reduction in viral replication
[11] = test system: Human immunodeficiency virus type 1 integrase (Human immunodeficiency virus 1), Q7ZJM1 [Y143R]; assay: Inhibition of HIV-1 integrase Y143R mutant strand transfer activity assessed as reduction in viral replication
[12] = test system: Human immunodeficiency virus type 1 integrase (Human immunodeficiency virus 1), Q7ZJM1 [Q148R]; assay: Inhibition of HIV-1 integrase Q148R mutant strand transfer activity assessed as reduction in viral replication
[13] = test system: Human immunodeficiency virus type 1 integrase (Human immunodeficiency virus 1), Q7ZJM1 [Q148K]; assay: Inhibition of HIV-1 integrase Q148K mutant strand transfer activity assessed as reduction in viral replication
[14] = test system: Human immunodeficiency virus type 1 integrase (Human immunodeficiency virus 1), Q7ZJM1 [N155H]; assay: Inhibition of HIV-1 integrase N155H mutant strand transfer activity assessed as reduction viral replication
[15] = test system: Human immunodeficiency virus type 1 integrase (Human immunodeficiency virus 1), Q7ZJM1 [G140S,Q148H]; assay: Inhibition of HIV-1 integrase G140S/Q148H double mutant strand transfer activity assessed as reduction in viral replication
[16] = test system: Human immunodeficiency virus 1; assay: Inhibition of HIV-1 integrase strand transfer activity assessed as reduction in viral replication in presence of 50% normal human serum

N#Cc1cccc2c1[C@]1(CC2)NC(=O)c2c3c(c(O)c(=O)n21)C(=O)N(Cc1ccc(F)c(Cl)c1)CC3
fraction unbound [1]: 0.028
solubility [2]: 8 µM (≈ 4.04 µg/mL)
solubility [3]: 10 µM (≈ 5.05 µg/mL)
clearance [4]: 2.4 mL/min/kg
Vd [5]: 0.9 L/kg
half-life [6]: 10.6 h
bioavailability [7]: 40%
Papp [8]: 7 ×10⁻⁶ cm/s
IP [9]: 4 nM
IP [10]: 18 nM
IP [11]: 4 nM
IP [12]: 7 nM
IP [13]: 9 nM
IP [14]: 13 nM
IP [15]: 18 nM
IP [16]: 18 nM
